In patent publication US8530648B2, “Diaza-spiro[5.5]undecanes” (Novartis AG, priority 2009, dated 2013):
pKd, pKi: −log10 of the molar value.

Key:
hOx1R [1] = target: T1, hOx1R (Homo sapiens (Human), UniProt O43613); test: Radioligand binding assay, [125I]orexin A, hOx1R; conditions: radioligand [125I]orexin A, competition
Protocol: (§1) For crude cell membrane preparations, cells (CHO, Chinese hamster ovary or HEK, human embryonic kidney) expressing human orexin 1 or human orexin 2 receptors, were washed with HEPES (10 mM, pH 7.5), scraped off the culture plates with the same buffer, and centrifuged at 4° C. for 5 min at 2500×g. The cell pellet was either stored at −80° C. or used directly. Before the experiments, cell membranes were re-suspended in binding assay buffer (10 mM HEPES, 0.5% (w/v) bovine serum albumin, pH 7.5) by homogenisation with a Polytron homogeniser at 50 Hz for 20 s. Cell membranes were also used as made available by commercial providers.
(§2) In initial saturation experiments (to calculate Bmax), cell homogenates (150 μl) were incubated with 25-300 pM of the radioligand ([^125I]orexin A, 50 μl), 8 concentrations in triplicates in the presence or absence Orexin A (1 μM, 50 μl) to define non specific binding. Bound radioactivity was measured, and data were analysed with the program XLFIT or Graphpad Prism. Protein concentration was determined according to the Bradford/BioRad Protein Assay Kit.
(§3) In competition experiments, cell homogenates (150 μl) were incubated in assay buffer (10 mM HEPES, pH 7.5, 0.5% (w/v) bovine serum albumin, 5 mM MgCl2, 1 mM CaCl2, and tween 0.05%) for 1 h at room temperature with about 100 pM of the radioligand ([^125I]orexin A, 2100 Ci/mmole, 50 μl), and with various concentrations of compounds of the invention (50 μl) in triplicates; non-specific binding was determined in the presence of Orexin A (1 μM). Reactions were terminated by vacuum filtration, 3 washes of ice cold wash buffer (Tris-HCl pH 7.4/10 mM, with NaCl 154 mM).

hOx2R [2] = target: T2, hOx2R (Homo sapiens (Human), UniProt O43614); test: Calcium accumulation in cells (FLIPR), hOx2R; format: cell-based; conditions: inhibition of orexin A induced calcium accumulation, Cheng and Prusoff correction
T2 sequence (O43614 whole entry): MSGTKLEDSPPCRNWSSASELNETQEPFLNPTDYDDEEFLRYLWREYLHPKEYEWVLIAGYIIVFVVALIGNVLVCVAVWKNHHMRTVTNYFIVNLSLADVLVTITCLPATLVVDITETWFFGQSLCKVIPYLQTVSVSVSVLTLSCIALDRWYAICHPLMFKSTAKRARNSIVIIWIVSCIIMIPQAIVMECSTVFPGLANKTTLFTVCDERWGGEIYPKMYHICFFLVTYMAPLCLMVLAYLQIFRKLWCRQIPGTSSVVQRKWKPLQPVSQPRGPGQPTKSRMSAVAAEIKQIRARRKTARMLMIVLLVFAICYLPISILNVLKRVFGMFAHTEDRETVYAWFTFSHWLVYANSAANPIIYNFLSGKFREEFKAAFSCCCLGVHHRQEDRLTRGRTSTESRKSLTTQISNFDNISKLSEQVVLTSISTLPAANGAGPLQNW
Procedure, shortened: (§4)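 Cells expressing human orexin 1 or 2 receptor, serum-deprived overnight, loaded with Fluo-4-AM (2 μM) plus 0.1 mM probenecid, pH 7.4 HEPES buffer with 1% BSA.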

hOx2R [3] = target: T2, hOx2R; test: Radioligand binding assay, [125I]orexin A, hOx2R; conditions: radioligand [125I]orexin A, competition
Protocol: as §1, §2, §3

hOx1R [4] = target: T1, hOx1R; test: Calcium accumulation in cells (FLIPR), hOx1R; format: cell-based; conditions: inhibition of orexin A induced calcium accumulation, Cheng and Prusoff correction
Procedure, shortened: as §4

C75/Bl6 mice [5] = test: Sleep Electroencephalography (Sleep EEG); format: in vivo; conditions: 100 mg/kg p.o.
Protocol: Sleep Electroencephalography (Sleep EEG):
The sleep pattern of tethered mice (C75/Bl6 mice; Janvier, France), chronically implanted with cortical EEG electrodes and an EMG electrode (neck muscle), is scored using the rodent scoring module of Somnologica software. Activity is monitored with an infrared sensor placed in the top of the cage and video recordings are collected with a day/night camera and infrared light during the dark phase (12 hours, lights off at 15:00). Mice are repeatedly acclimated to the recording setup and for a minimum of 3 days before each experiment. All treatments occur 5-10 min before lights off. On Day 1 mice are handled and the oral gavage introduced without application, on Day 2 vehicle is applied, on Day 3 compound is applied, and on Day 4 vehicle is applied. 22 hour recordings are scored in 10 s epochs and the total minutes per hour in Active wake (wake with locomotion), Quiet wake, and sleep are determined. Significance (p<0.05) is tested between vehicle and compound with Systat12 using the Restricted Maximum Likelihood test followed by post-hoc analysis using Fisher's Least Significant Differences test when either treatment or the interaction between treatment and hour had p<0.05.

C75/Bl6 mice [6] = test: Beam Braking Motor Activity Behavior (BBM); format: in vivo; conditions: 100 mg/kg p.o.; for BBM: induced inactivity vs controls: in the first 3 hours
Protocol: Beam Braking Motor Activity Behavior (BBM)
In the morning (9:00 h) of experimental day 1, the animals (C75/Bl6 mice; Janvier, France) are singly placed into home cages (Type 3, only containing sawdust, as well as food and water ad libitum). The cages are put into frames equipped with infrared beams to record the activity/inactivity of the mice (Moti 4.25, TSE Systems, Germany). The first 1.5 days are used for habituation (see Figure). Five minutes before lights-off of the second day, the animals (n=6/groups) are orally treated with vehicle, the compounds or a positive control (e.g. almorexant 100 mg/kg). Then, the animals stay in the setups for the following lights-off period and activity monitored.
The data are expressed as means±SEM (standard error of the means) of these difference scores for each hour as well as for the first four hours after administration, the time period which is most sensible to the effects of sleep-promoting compounds. Statistical analysis of the data is done with Systat 11 software. Since the data are normally distributed, analysis of variance (ANOVA) with treatment as between subject factor and the Dunnett test for post-hoc pairwise comparison were used. Furthermore, Student t-tests are used for single pair wise comparisons.

T1 sequence (O43613 whole entry): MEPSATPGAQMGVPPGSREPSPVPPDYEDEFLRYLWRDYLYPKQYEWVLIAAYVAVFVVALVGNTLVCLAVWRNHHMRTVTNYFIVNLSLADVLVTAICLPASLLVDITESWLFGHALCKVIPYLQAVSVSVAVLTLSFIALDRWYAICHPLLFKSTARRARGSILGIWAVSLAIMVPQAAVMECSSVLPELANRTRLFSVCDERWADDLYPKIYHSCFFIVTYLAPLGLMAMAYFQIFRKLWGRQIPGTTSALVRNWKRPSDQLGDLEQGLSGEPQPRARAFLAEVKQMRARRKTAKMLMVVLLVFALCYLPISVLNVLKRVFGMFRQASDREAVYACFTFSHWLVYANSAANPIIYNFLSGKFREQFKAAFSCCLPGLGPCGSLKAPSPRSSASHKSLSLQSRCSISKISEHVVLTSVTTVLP

| SMILES | pKd (hOx1R [1]) | pKi (hOx2R [2]) | pKd (hOx2R [3]) | pKi (hOx1R [4]) | Sleep EEG: duration of reduced active wake and increased sleep (C75/Bl6 mice [5]) | Sleep EEG: effect on quiet wake (C75/Bl6 mice [5]) | Sleep EEG: reduction of active wake and increase of sleep vs controls (C75/Bl6 mice [5]) | BBM: duration of induced inactivity (C75/Bl6 mice [6]) [h] | BBM: induced inactivity vs controls (C75/Bl6 mice [6]) |
| --- | --- | --- | --- | --- | --- | --- | --- | --- | --- |
| Cc1ccc(C)c(CN2C(=O)CCCC23CCN(c2cnc4ccccc4n2)CC3)c1 [Example 41, 1-(2,5-dimethylbenzyl)-9-(quinoxalin-2-yl)-1,9-diazaspiro[5.5]undecan-2-one] | 7.00 | 7.80 | 7.44 | 7.11 | – | – | – | – | – |
| CNC(=O)[C@@H](c1ccccc1)N1CCc2cc(OC)c(OC)cc2[C@@H]1CCc1ccc(C(F)(F)F)cc1 [almorexant, reference compound] | – | – | – | – | 5 to 6 h | without noticeable effect | 9-16 minutes/hour | 5 to 7 | 18-21 minutes/hour |
| O=C1CCCC2(CCN(c3nc4cc(Cl)ccc4o3)CC2)N1Cc1cccc2[nH]ccc12 [Example 136, 1-((1H-indol-4-yl)methyl)-9-(5-chlorobenzo[d]oxazol-2-yl)-1,9-diazaspiro[5.5]undecan-2-one] | 5.85 | 7.96 | 7.02 | 6.18 | – | – | – | – | – |
| Cc1onc(-c2ccccc2)c1CN1CCCC2(CCN(c3cnc4ccccc4n3)CC2)C1=O [Example 34, 2-((5-methyl-3-phenylisoxazol-4-yl)methyl)-9-(quinoxalin-2-yl)-2,9-diazaspiro[5.5]undecan-1-one] | 5.36 | 7.06 | 6.74 | 5.81 | – | – | – | – | – |
| Cc1cccc(CN2CCCC3(CCN(c4cnc5ccccc5n4)CC3)C2=O)c1 [Example 15, 2-(3-methylbenzyl)-9-(quinoxalin-2-yl)-2,9-diazaspiro[5.5]undecan-1-one] | 5.86 | 6.81 | 6.54 | 5.86 | – | – | – | – | – |
| O=C1N(Cc2c[nH]c3ccccc23)CCCC12CCN(c1cnc3ccccc3n1)CC2 [Example 1, 2-((1H-indol-3-yl)methyl)-9-(quinoxalin-2-yl)-2,9-diazaspiro[5.5]undecan-1-one] | 6.43 | 7.52 | 7.38 | 6.50 | up to 7 hours | minimal effects | 7-16 minutes/hour | 6 to 7 | 15-22 minutes/hour |
| Cc1cc2c(CN3CCCC4(CCN(c5cnc6ccccc6n5)CC4)C3=O)cccc2[nH]1 [Example 13, 2-((2-methyl-1H-indol-4-yl)methyl)-9-(quinoxalin-2-yl)-2,9-diazaspiro[5.5]undecan-1-one] | 6.11 | 7.46 | 7.21 | 6.44 | – | – | – | – | – |
| O=C1CCCC2(CCN(c3nc4ccccc4o3)CC2)N1Cc1cccc2[nH]ccc12 [Example 42, 1-((1H-indol-4-yl)methyl)-9-(benzo[d]oxazol-2-yl)-1,9-diazaspiro[5.5]undecan-2-one] | 7.44 | 8.52 | 7.92 | 7.70 | – | – | – | – | – |
| O=C1N(Cc2cccc3c2OCO3)CCCC12CCN(c1cnc3ccccc3n1)CC2 [Example 9, 2-(benzo[d][1,3]dioxol-4-ylmethyl)-9-(quinoxalin-2-yl)-2,9-diazaspiro[5.5]undecan-1-one] | 5.63 | 7.46 | 6.38 | 6.04 | – | – | – | – | – |
| O=C1N(Cc2cccc(-c3ccccc3)c2)CCCC12CCN(c1cnc3ccccc3n1)CC2 [Example 22, 2-(biphenyl-3-ylmethyl)-9-(quinoxalin-2-yl)-2,9-diazaspiro[5.5]undecan-1-one] | 5.88 | 7.29 | 7.23 | 6.29 | – | – | – | – | – |
| O=C1N(Cc2cccc3c2OCCO3)CCCC12CCN(c1cnc3ccccc3n1)CC2 [Example 4, 2-((2,3-dihydrobenzo[b][1,4]dioxin-5-yl)methyl)-9-(quinoxalin-2-yl)-2,9-diazaspiro[5.5]undecan-1-one] | 5.69 | 7.34 | 6.92 | 5.87 | – | – | – | – | – |
| O=C1N(Cc2ccccc2)CCCC12CCN(c1cnc3ccccc3n1)CC2 [Example 6, 2-benzyl-9-(quinoxalin-2-yl)-2,9-diazaspiro[5.5]undecan-1-one] | 5.88 | 6.43 | 6.52 | 5.83 | – | – | – | – | – |
| O=C1N(Cc2cccc3ccccc23)CCCC12CCN(c1cnc3ccccc3n1)CC2 [Example 2, 2-(naphthalen-1-ylmethyl)-9-(quinoxalin-2-yl)-2,9-diazaspiro[5.5]undecan-1-one] | 6.44 | 7.52 | 7.47 | 6.32 | – | – | – | – | – |
| O=C1N(Cc2cccc(C(F)(F)F)c2)CCCC12CCN(c1cnc3ccccc3n1)CC2 [Example 14, 9-(quinoxalin-2-yl)-2-(3-(trifluoromethyl)benzyl)-2,9-diazaspiro[5.5]undecan-1-one] | 5.86 | 6.95 | 6.68 | 6.02 | – | – | – | – | – |
